Test results: article PMC3100226 (Journal of Pain Research, 2011)

Experiments:
5-HT3 = 5-HT3 (Rattus norvegicus, UniProt P35563); test: Receptor characterization panel: 5-HT3 binding; conditions: read-out: 10 μM CR4056 (% effect), inhibition of specific binding
[1] = system: neuromuscular coordination of rats; test: Rotarod test; format: in vivo; conditions: rat; oral 3–30 mg/kg
[2] = target: inducible NO synthase (iNOS) (Homo sapiens, UniProt P35228); test: Enzyme characterization panel: iNOS; format: biochemical; conditions: data not shown
inducible NO synthase (iNOS), sequence (P35228 whole entry, species assumed): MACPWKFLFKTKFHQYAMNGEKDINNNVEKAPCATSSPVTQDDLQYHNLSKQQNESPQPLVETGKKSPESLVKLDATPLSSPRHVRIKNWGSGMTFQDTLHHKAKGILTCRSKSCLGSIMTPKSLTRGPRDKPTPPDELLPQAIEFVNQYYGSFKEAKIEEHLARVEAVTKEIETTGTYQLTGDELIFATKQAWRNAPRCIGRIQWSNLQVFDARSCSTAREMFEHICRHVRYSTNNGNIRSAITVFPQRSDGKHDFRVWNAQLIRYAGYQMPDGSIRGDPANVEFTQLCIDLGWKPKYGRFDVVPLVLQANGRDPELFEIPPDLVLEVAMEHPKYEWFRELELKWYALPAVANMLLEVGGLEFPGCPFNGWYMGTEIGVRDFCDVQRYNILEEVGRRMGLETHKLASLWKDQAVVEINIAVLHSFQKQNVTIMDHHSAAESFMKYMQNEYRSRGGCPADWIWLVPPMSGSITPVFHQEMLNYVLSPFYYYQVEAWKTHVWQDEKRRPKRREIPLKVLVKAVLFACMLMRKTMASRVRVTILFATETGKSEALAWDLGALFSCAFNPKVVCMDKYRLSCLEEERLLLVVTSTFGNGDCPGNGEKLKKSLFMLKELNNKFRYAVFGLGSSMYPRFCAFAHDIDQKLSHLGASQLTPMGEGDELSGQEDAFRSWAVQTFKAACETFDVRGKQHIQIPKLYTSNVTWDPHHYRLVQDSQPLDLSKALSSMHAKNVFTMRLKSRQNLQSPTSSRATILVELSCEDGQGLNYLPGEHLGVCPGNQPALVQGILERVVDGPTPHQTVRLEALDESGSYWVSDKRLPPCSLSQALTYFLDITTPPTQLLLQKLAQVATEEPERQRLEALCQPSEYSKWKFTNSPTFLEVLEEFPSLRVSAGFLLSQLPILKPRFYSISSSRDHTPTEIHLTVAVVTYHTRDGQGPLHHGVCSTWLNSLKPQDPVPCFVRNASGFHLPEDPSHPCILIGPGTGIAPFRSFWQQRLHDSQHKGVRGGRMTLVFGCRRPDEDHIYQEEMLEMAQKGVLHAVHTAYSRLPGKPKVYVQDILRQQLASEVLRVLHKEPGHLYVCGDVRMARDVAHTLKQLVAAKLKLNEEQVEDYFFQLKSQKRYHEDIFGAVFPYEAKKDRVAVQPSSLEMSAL

imidazoline I2 receptor = test: [3H]2-BFI binding to imidazoline I2 receptors in rat whole-brain membranes; conditions: read-out: IC50, nM, [3H]2-BFI binding to the imidazoline I2 receptor; Table S2; rat whole brain membranes, […] [3H]2-BFI, 90 minutes at 25°C; mean ± SEM
[3] = target: Glycine (strychnine-sensitive) (Rattus norvegicus, UniProt P07727); test: Receptor characterization panel: glycine receptor binding; conditions: read-out: 10 μM CR4056 (% effect), inhibition of specific binding
Glycine (strychnine-sensitive), sequence (P07727 29-457): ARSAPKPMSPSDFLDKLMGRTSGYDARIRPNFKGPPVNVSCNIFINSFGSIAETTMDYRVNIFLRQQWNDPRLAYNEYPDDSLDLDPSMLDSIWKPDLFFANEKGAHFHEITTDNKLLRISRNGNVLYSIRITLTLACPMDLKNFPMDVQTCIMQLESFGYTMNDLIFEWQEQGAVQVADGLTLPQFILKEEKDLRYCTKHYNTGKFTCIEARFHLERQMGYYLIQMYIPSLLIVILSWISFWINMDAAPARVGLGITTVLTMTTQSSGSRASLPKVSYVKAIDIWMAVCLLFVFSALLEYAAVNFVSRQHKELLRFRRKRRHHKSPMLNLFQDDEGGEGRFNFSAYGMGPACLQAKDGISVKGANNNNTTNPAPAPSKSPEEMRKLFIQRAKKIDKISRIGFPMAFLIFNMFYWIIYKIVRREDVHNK
Glycine (strychnine-sensitive), sequence (P20781 23-496 partner): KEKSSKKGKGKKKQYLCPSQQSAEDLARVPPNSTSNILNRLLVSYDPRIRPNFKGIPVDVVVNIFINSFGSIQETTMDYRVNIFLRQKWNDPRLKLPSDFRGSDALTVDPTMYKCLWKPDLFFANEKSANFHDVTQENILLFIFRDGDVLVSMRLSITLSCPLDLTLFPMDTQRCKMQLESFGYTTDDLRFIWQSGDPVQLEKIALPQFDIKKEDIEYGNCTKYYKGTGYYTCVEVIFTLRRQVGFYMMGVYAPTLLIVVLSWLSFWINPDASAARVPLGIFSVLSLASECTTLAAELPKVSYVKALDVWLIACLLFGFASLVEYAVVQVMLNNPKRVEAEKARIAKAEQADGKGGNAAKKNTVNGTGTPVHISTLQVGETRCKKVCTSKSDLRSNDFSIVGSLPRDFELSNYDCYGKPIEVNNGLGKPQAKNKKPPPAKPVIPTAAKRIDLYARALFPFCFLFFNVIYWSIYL

human recombinant MAO-B = target: T1, human recombinant MAO-B (Homo sapiens, UniProt P27338); test: Human recombinant MAO-B functional assay; format: biochemical
T1 sequence (P27338 1-520): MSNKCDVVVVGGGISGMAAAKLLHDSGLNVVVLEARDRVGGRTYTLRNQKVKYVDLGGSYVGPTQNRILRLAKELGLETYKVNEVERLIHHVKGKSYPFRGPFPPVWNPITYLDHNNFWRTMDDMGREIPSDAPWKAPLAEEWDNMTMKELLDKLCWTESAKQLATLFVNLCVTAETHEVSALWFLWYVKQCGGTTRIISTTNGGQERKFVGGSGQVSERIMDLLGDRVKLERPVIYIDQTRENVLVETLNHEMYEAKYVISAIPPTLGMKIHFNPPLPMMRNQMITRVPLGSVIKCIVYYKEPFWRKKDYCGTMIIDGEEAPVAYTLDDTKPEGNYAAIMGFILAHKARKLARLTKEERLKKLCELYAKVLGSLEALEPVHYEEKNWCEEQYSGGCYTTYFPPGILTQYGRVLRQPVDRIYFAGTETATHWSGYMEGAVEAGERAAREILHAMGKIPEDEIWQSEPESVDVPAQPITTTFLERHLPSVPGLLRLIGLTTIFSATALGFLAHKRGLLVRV

human recombinant MAO-A = human recombinant MAO-A (Homo sapiens, UniProt P21397); test: Human recombinant MAO-A functional assay; format: biochemical
human recombinant MAO-A, sequence (P21397 whole entry): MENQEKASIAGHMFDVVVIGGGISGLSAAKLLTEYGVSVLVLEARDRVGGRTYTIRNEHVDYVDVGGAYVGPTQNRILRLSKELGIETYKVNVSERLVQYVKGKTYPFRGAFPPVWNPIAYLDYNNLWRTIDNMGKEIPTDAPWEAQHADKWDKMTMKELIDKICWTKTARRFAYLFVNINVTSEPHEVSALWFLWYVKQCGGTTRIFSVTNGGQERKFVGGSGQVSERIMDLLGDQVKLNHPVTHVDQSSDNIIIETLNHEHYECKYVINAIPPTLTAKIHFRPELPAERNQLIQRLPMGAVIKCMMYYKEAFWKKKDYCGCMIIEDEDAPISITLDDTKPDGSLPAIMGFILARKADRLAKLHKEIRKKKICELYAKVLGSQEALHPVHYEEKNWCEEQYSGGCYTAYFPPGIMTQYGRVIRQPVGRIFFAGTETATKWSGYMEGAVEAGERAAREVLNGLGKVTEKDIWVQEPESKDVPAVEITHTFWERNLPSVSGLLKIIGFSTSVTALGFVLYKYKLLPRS

[4] = system: STZ-induced diabetic pain in rats; test: Streptozotocin-induced neuropathic; format: in vivo; conditions: rat, 60 mg/kg oral
CCK1 = CCK1 (Rattus norvegicus, UniProt P30551); test: Receptor characterization panel: CCK1 binding; conditions: read-out: 10 μM CR4056 (% effect), inhibition of specific binding
CCK1, sequence (P30551 whole entry): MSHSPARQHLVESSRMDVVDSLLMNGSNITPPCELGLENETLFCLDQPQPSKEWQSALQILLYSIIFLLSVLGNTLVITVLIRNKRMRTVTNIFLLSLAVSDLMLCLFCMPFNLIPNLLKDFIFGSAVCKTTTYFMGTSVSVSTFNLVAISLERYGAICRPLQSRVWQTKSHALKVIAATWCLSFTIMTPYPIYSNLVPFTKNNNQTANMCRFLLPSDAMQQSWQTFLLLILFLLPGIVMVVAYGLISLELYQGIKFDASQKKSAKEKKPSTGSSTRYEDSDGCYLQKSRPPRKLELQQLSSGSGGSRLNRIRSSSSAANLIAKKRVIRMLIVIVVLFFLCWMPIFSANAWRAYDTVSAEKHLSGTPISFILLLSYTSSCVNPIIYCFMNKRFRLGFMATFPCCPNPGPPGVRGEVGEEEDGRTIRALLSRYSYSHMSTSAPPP

MAO-A = target: T2, MAO-A (Rattus norvegicus, UniProt P21396); test: MAO-A binding
T2 sequence (P21396 1-526): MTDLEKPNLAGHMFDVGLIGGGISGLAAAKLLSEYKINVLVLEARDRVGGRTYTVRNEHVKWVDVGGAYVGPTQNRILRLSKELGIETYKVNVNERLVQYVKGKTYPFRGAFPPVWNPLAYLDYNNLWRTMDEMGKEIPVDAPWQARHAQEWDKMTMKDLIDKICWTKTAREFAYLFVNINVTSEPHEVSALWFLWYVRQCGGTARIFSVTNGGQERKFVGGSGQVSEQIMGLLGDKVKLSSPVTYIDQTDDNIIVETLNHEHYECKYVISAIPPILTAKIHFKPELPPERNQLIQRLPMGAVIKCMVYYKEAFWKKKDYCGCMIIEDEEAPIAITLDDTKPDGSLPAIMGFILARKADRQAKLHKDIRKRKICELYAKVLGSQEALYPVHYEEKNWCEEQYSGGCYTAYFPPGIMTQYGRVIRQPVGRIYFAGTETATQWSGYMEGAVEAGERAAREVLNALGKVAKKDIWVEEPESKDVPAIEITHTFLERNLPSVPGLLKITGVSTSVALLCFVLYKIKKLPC

I2 = test: Receptor characterization panel: I2 binding; conditions: 10 μM; [3H]Idazoxan (+1 μM yohimbine); cerebral cortex/rat
D1 = D1 (Rattus norvegicus, UniProt P18901); test: Receptor characterization panel: D1 binding; conditions: read-out: 10 μM CR4056 (% effect), inhibition of specific binding
D1, sequence (P18901 whole entry): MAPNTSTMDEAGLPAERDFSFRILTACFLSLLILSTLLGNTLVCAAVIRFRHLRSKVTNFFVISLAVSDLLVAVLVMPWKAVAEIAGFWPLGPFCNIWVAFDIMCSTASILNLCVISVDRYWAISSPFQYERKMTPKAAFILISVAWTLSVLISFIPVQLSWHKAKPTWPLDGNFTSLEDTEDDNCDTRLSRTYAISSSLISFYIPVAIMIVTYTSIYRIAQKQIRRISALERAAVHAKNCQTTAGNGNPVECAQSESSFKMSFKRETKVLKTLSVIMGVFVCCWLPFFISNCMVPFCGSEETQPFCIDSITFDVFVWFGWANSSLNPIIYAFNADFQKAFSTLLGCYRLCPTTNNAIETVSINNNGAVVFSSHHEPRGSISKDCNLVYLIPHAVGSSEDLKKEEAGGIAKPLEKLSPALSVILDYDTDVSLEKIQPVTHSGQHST

5-HT3, sequence (P35563 24-483): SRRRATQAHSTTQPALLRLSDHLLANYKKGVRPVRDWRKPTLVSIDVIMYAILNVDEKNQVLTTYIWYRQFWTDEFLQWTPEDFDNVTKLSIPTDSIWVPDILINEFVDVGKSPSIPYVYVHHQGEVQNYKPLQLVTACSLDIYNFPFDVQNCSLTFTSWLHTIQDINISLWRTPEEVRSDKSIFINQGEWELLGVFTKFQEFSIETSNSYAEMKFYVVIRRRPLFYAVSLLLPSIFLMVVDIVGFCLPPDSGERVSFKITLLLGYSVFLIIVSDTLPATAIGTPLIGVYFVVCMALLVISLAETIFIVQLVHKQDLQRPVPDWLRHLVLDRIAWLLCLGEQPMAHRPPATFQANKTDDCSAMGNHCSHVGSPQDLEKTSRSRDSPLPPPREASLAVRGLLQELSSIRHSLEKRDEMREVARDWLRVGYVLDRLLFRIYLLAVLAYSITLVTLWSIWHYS

## c1ccc(-c2ncc3cc(-n4ccnc4)ccc3n2)cc1 [CR4056, 2-phenyl-6-(1H-imidazol-1yl)quinazoline]
5-HT3
  inhibition at 10 µM: 28%
[1]
  Performance in rotarod test: did not cause a deterioration
[2]
  Activity in enzyme characterization panel: inactive
Imidazoline I2 receptor
  IC50: 596 ± 76 nM
[3]
  inhibition at 10 µM: 19%
Human recombinant MAO-B
  IC50: > 10000 nM
Human recombinant MAO-B; human recombinant enzymes
  Times less active as inhibitor of MAO-B activity than of MAO-A: about 100 times
Human recombinant MAO-A
  IC50: 203 ± 10.3 nM
[4]
  Decrease of total STZ-induced hyperalgesic effect, AUC analysis (0–6 hours): 84%
  Reduction of mechanical hyperalgesia at 6 hours post-dosing: 58%
[4]; within 30 minutes
  Reversal of STZ-induced mechanical hyperalgesia: completely reversed
CCK1
  inhibition at 10 µM: 21%
MAO-A
  IC50: 358 ± 12 nM
MAO-A; read-out: 10 μM CR4056 (% effect), inhibition of specific binding, 10 μM, [3H]Ro 41-1049, cerebral cortex/rat
  inhibition at 10 µM: > 90%
I2
  10 μM CR4056 (% effect), inhibition of specific binding: 66%
D1
  inhibition at 10 µM: 19%
